The target of experiment [1] is Human immunodeficiency virus type 1 reverse transcriptase (Human immunodeficiency virus 1, UniProt Q72547). In words: Inhibitory effect on wild type HIV- 1 reverse transcriptase using rCdG as template and dGTP as substrate.
Experiment [2] relates to Human immunodeficiency virus 1. In words: Antiviral activity was determined against HIV-1 (clone 90) in MT-4 cells infected with HIV-1 IIIB using an XTT assay. Conditions: Human immunodeficiency virus 1, MT4; read-out: ED50 (the source's name). In kind it is functional.
Experiment [3] has as its system Human immunodeficiency virus 1. Put plainly: Antiviral activity was determined against HIV-1 (clone 118) in MT-4 cells infected with HIV-1 IIIB using an XTT assay. The experiment is classed as functional. The note with it: Human immunodeficiency virus 1, MT4; read-out: ED50 (the source's name). A general note: Tetrazolium dyes change colour on reduction, which living cells bring about.

Experiment [4] relates to Human immunodeficiency virus 1. Put plainly: (§1) Antiviral activity was determined against wild type HIV-1 in MT-4 cells infected with HIV-1 IIIB using an XTT assay. In kind it is functional. The note with it: Human immunodeficiency virus 1, MT4; read-out: ED50 (the source's name).
Experiment [5] has as its system Human immunodeficiency virus 1. Described as §1. In kind it is functional. Conditions: Human immunodeficiency virus 1, MT4; read-out: ED50 (the source's name). This is another data set of the same source.
The target in experiment [6] is Human immunodeficiency virus type 1 reverse transcriptase (Human immunodeficiency virus 1, UniProt Q72547, Y181C). Put plainly: Inhibitory effect on recombinant HIV- 1 reverse transcriptase which has a mutation Tyr 181 to Cys 181 (clone 90).
The target in experiment [7] is Human immunodeficiency virus type 1 reverse transcriptase (Human immunodeficiency virus 1, UniProt Q72547, L100I). In words: Inhibitory effect on recombinant HIV- 1 reverse transcriptase which has a mutation Leu 100 to Ile 100 (clone 118).
Experiment [8] relates to MT4. In words: Compound was tested for its inhibitory effect on HIV-1 in MT-4 cells. Conditions: Homo sapiens, read-out: ED50 (the source's name). In kind it is functional.
For experiment [9], the system named is MT4. In words: Antiviral activity was determined against wild type HIV- I in MT-4 cells infected with HIV-1 IIIB using an XTT assay which contains 15% human AB serum. The experiment is classed as functional. The note with it: read-out: ED50 (the source's name).

For 17 compounds, IC50 and EC50 results are on record in ChEMBL document CHEMBL1130840, “Synthesis and anti-HIV activities of urea-PETT analogs belonging to a new class of potent non-nucleoside HIV-1 reverse transcriptase inhibitors” (Bioorg Med Chem Lett, 1998).

Bounds are passed on as bounds.

`COc1ccc(OC)c(CCNC(=O)Nc2ccc(Cl)cn2)c1F`: the IC50 amounted to 0.003 µM in experiment [1], 0.14 µM in experiment [6] and 0.14 µM in experiment [7]. Further, the EC50 in [2] was 3 µM; in [3], 17 µM; in [4], 0.011 µM; in [5] it was 0.09 µM.
For `S=C(NCCc1ccccc1)Nc1nccs1`, the EC50 with MT4 [8] is 1.3 µM.
Consider `CCOc1ccc(OC)c(CCNC(=O)Nc2ccc(Cl)cn2)c1F`, for which the IC50 in experiment [1] stood at 0.008 µM; in experiment [6], 0.5 µM; in experiment [7] it was 2.5 µM. The EC50 in experiment [2] was greater than 27 µM; in [3], 14 µM; in experiment [4], 0.13 µM.
Consider `CCOc1ccc(F)c(CCNC(=O)Nc2ccc(Br)cn2)c1Cl`, for which the IC50 was 0.004 µM in experiment [1], 0.24 µM in experiment [6] and 1.7 µM in [7]. For the same compound, the results for the EC50 in experiment [2], in experiment [3] and in [4] were 8 µM, 15 µM and 0.07 µM, respectively.
As to `O=C(NCCc1c(F)cccc1F)Nc1ccc(Cl)cn1`, the EC50 in [2] is greater than 32 µM; in experiment [3] it was 32 µM; in [4], 0.03 µM; in [5], 0.85 µM.
Consider `CCOc1ccc(F)c([C@H]2C[C@H]2NC(=O)Nc2ccc(Cl)cn2)c1F`, for which the IC50 worked out at 0.0015 µM in experiment [1], 0.015 µM in experiment [6] and 0.08 µM in [7]. The EC50 in [2] is 0.27 µM; in [3], 0.75 µM; in experiment [4] it was 0.008 µM; in experiment [5], 0.03 µM.
In the case of `CCOc1ccc(F)c([C@H]2C[C@H]2NC(=O)Nc2ccc(Cl)cn2)c1Cl`, the 50% inhibitory concentration (IC50) in [1] came out at 0.008 µM; in experiment [6], 0.05 µM; in [7], 0.08 µM. Further, the values for the EC50 in [3], in [4] and in [5] were 0.1 µM, 0.016 µM and 0.06 µM, respectively.
Consider `O=C(Nc1ccc(Cl)cn1)N[C@@H]1C[C@@H]1c1c(F)cccc1F`, for which the IC50 was 0.002 µM in [1], 0.12 µM in [6] and 0.03 µM in experiment [7]. The EC50 turned out to be 0.01 µM with MT4 [9] and 0.006 µM in experiment [4].
In the case of `CCOc1ccc(OC)c([C@H]2C[C@H]2NC(=O)Nc2ccc(Br)cn2)c1F`, the IC50 amounted to 0.007 µM in [1], 0.09 µM in [6] and 0.24 µM in experiment [7]. Moreover, the EC50 in experiment [4] was 0.025 µM; in experiment [5], 0.4 µM.
Turning to `CCOc1ccc(Cl)c([C@H]2C[C@H]2NC(=O)Nc2ccc(Cl)cn2)c1F`, the values for the half-maximal inhibitory concentration (IC50) in experiment [1], in experiment [6] and in [7] were 0.0015 µM, 0.02 µM and 0.05 µM, respectively. Further, the EC50 in experiment [2] came to 0.1 µM; in experiment [3], 0.1 µM; in experiment [4], 0.008 µM; in [5] it was 0.1 µM.
Turning to `CCOc1ccc(F)c([C@H]2C[C@H]2NC(=O)Nc2ccc(C#N)cn2)c1Cl`, the 50% inhibitory concentration (IC50) in [1] amounted to 0.004 µM; in [6], 0.07 µM; in experiment [7], 0.08 µM. Besides, the EC50 amounted to 0.53 µM in experiment [2], 0.27 µM in experiment [3], 0.01 µM in experiment [4] and 0.02 µM in [5].
Regarding `COc1ccc(OC)c([C@H]2C[C@H]2NC(=O)Nc2ccc(Cl)cn2)c1F`, the IC50 in experiment [1] stood at 0.002 µM; in experiment [6] it was 0.27 µM; in experiment [7] it was 0.27 µM. Also, the EC50 in [2] came out at 2.7 µM; in experiment [3], 1.6 µM; in experiment [4] it was 0.012 µM; in experiment [5], 0.1 µM.
On to `CN(C)c1ccc(F)c(CCNC(=O)Nc2ccc(Br)cn2)c1F`, for which the results for the IC50 in experiment [1], in experiment [6] and in experiment [7] were 0.025 µM, 1.5 µM and greater than 2.5 µM, respectively. For the same compound, the EC50 is greater than 25 µM in experiment [2], greater than 25 µM in experiment [3] and 0.5 µM in [4].
For the compound `COc1ccc(C(C)=O)c(F)c1CCNC(=O)Nc1ccc(Cl)cn1`, the results for the IC50 in [1], in experiment [6] and in experiment [7] were 0.1 µM, 10 µM and 1.1 µM, respectively. For the same compound, the EC50 in experiment [2] was greater than 27 µM; in experiment [3], greater than 27 µM; in [4] it was 0.2 µM.
Take `CCc1cc(NCc2nc3c(Cl)ccc(Cl)c3o2)c(O)nc1C` [L-697661]: the EC50 in [2] was greater than 11 µM; in experiment [3], 0.85 µM; in [4] it was 0.065 µM. For the same compound, the concentration for half-maximal inhibition (IC50) came to 15 µM in experiment [6] and 1.6 µM in experiment [7].
Consider `Cc1ccnc2c1NC(=O)c1cccnc1N2C1CC1` [NEVIRAPINE], for which the results for the EC50 in [2], in [3] and in experiment [4] were 22 µM, 0.62 µM and 0.15 µM, respectively.
With `S=C(NCCc1ccccn1)Nc1ccc(Br)cn1` [TROVIRDINE], the EC50 in experiment [2] was greater than 5 µM; in experiment [3], 0.8 µM; in experiment [4] it was 0.02 µM; in experiment [5], 5 µM. The IC50 in experiment [6] was determined as 3.2 µM; in experiment [7], 0.7 µM.

Usually IC50 stands for the concentration needed to halve the response being measured.
